Experimental data published in patent US9828375B2, “4-position substituted pyrazolopyrimidine derivative, and use thereof in drug preparation” (Guangxi Wuzhou Pharmaceuticals (Group) Co., Ltd., priority 2012, dated 2017).

Columns and labels:
[1] = system: human leukemia cell line K562; experiment: In vitro tumor cell proliferation inhibition (MTT): K562; type: cell-based
Excerpt: (§1) The purpose of the experiment was to test the inhibition activity of the compounds of the invention for in vitro human tumor cell proliferation by the methyl thiazolyl tetrazolium (MTT) colorimetry.
(§2) Main reagents: RPMI-1640, fetal bovine serum, pancreatin, etc. were purchased from Gibco BRL Company (Invitrogen Corporation, USA) and IMDM medium that was purchased from American Type Culture Collection (ATCC). Methyl thiazolyl tetrazolium (MTT) and dimethyl sulfoxide (DMSO) were products from Sigma Company (USA). Pyrazolopyrimidine derivatives were composed by the inventor. During in vitro experiment, 100% DMSO was prepared into 10 mM storage solution, the solution was stored in a refrigerator at −20° C. for future use, and was diluted to the required concentration with complete culture solution before use.
(§3) Cell line and culture: Human leukemia cell line MV4-11, Jurkat, K562, human thyrophyma cell line TT, human gastric carcinoma cell line MKN-45, human malignant melanoma cell lines A375 and A875, human pancreatic carcinoma cell line panc-1, human cervical carcinoma cell line HELA, human colorectal carcinoma cell line HCT116, etc. were purchased from American type culture collection and were preserved by this laboratory. All leukemia cell lines (except MV4-11), gastric carcinoma cell lines and thyrophyma cell lines were cultured in RPMI-1640 complete medium containing 10% fetal bovine serum, 100 U/mL penicillin and 100 μg/mL streptomycin at 37° C. in 5% CO2. The remaining cell lines were cultured in DMEM complete medium containing 10% fetal bovine serum (containing 20% MV4-11 cell), 100 U/mL penicillin and 100 µg/mL streptomycin at 37° C. in 5% CO2.
(§4) Cell suspension with cell concentration of 1-2×10^4/mL was adjusted with the complete cell medium and inoculated in a 96-well plate, with each well filled with 200 μl cell suspension that was cultured overnight. On the next day, supernatant was sucked and abandoned (supernatant was sucked upon centrifugation of suspension cells), and then cells were processed with test compounds at gradient concentrations respectively. Meanwhile, a negative control group free from drug and a solvent control group with equal volume were set, and the DMSO concentration was 0.1%. Each dose group was provided with three wells and cultured at 37° C. in 5% CO2. After 72 hours, 20 μl 5 mg/mL MTT reagent was added to each well, and cultured for another 2 to 4 hours, the supernatant was abandoned; 150 μL DMSO was added to each well again, vibrated and mixed evenly for 15 minutes; the absorbance (A) values (proportional to living cell amount) were determined with a microplate reader (λ=570 nm) and averaged. […] Experiment was repeated for 3 times at least. Experimental data were expressed with means, data statistics were tested by t, and P<0.05 means that difference has a statistical significance. The cell proliferation inhibition effects of all compounds as follows are expressed by IC50 or inhibition rate.

[2] = target: PDGFRα (Homo sapiens, UniProt P16234); experiment: Kinase inhibition activity test, isotope labeling: PDGFRα; type: biochemical; conditions: for Activity inhibition rate PDGFRα (h) / inhibition at 10 µM: test compound at a concentration of 10 μM; for IC50: ATP 120 μM, read-out: PDGFRα IC50 value (inhibitory activity value); for inhibition at 10 µM: read-out: Activity inhibition rate PDGFRα (h)
Experimental: (§5) The purpose of this experiment was to test the inhibitory activity of the compound of the invention for in vitro kinase with the isotope labeling method (the γ phosphate group on ATP was labeled). In this experiment, the in vitro activity inhibition of such kinases as FLT3, VEGFR2, FLT1, FLT4, RET, c-RAF, B-RAF, c-KIT, PDGFα, PDGFβ, FGFR2, FGFR1, EphA2, EphB2, SRC, ABL, ALK and Met was tested respectively. Staurosporine was reference molecule (or referred to as positive control). The kinase inhibition activity of the test compound was expressed by half-inhibitory concentration (IC50) or the kinase activity inhibition rate of the test compound at a concentration of 10 μM. The IC50 value could be obtained by calculating the kinase activity inhibition rate of the test compound at different concentrations.
(§6) 20 mM 3-(N-morpholinyl)propanesulfonic acid (MOPS); 1 mM ethylenediaminetetraacetic acid (EDTA), 0.01% Brij 35 (Brij-35), 5% glycerol, 0.1% mercaptoethanol, 1 mg/mL bovine serum albumin (BSA), 10 mM manganous dichloride solution (MnCl2), 0.1 mg/mL glutamic acid/tyrosine (4:1) polypeptide (poly(Glu, Tyr)4:1), 50 μM EAIYAAPFAKKK (substrate of FLT3), 0.33 mg/mL myelin basic protein (substrate of VEGFR2), 250 μM KKKSPGEYVNIEFG (substrate of FLT1(h)), 500 μM GGEEEEYFELVKKKK (substrate of FLT4(h)), 250 μM KKKSPGEYVNIEFG (substrate of RET), 0.66 mg/mL myelin basic protein (substrate of C-RAF), 250 μM GGMEDIYFEFMGGKKK (substrate of c-Kit), 250 μM GGMEDIYFEFMGGKKK (substrate of PDGFα), 250 μM KKKSPGEYVNIEFG (substrate of FGFR1), […] GGEEEEYFELVKKKK (substrate of SRC), 50 μM EAIYAAPFAKKK (substrate of ABL), 250 μM KKKSPGEYVNIEFG (substrate of ALK), 250 μM KKKSPGEYVNIEFG (substrate of Met(h)), 10 mM magnesium acetate and γ-^33 P-ATP solution, stop buffer (3% phosphate buffer), washing buffer (75 mM phosphate solution), methanol, Filtermat A membrane, FLT3, VEGFR2, FLT3, VEGFR2, FLT1, FLT4, RET, c-RAF, B-RAF, c-KIT, PDGFRα, PDGFRβ, FGFR2, FGFR1, EphA2, EphB2, SRC, ABL, ALK, Met and other kinases, and the test compounds.
(§7) Buffers (8 mM MOPS with pH value of 7.0, 0.2 mM EDTA and 10 mM MnCl2), (5-10 mU) kinases to be tested (FLT3, VEGFR2, FLT1, FLT4, RET, c-RAF, B-RAF, c-KIT, PDGFRα, PDGFRβ, FGFR2, FGFR1, EphA2, EphB2, SRC, ABL, ALK and Met), substrates of kinases to be tested (refer to experimental materials), 10 mM magnesium acetate and γ-^33 P-ATP solution, and test compounds at different concentrations were added to a reaction tube orderly. […] Reaction was terminated with 5 μL 3% phosphate buffer finally, and 10 μL reaction solution was titrated to the Filtermat A membrane; solution was washed for 3 times with 75 mM phosphate solution with each time lasting 5 minutes, and then washed once with methanol. Finally, the Filtermat A membrane was dried, and scintillation counting was performed on the membrane, with scintillation count reflecting the phosphorylation degree of the substrates, so that the activity inhibition of kinase could be characterized.

[3] = target: c-KIT (Homo sapiens, UniProt P10721); experiment: Kinase inhibition activity test, isotope labeling: c-KIT; type: biochemical; conditions: for Activity inhibition rate c-Kit (h) / inhibition at 10 µM: test compound at a concentration of 10 μM; for IC50: ATP 200 μM, read-out: c-KIT IC50 value (inhibitory activity value); for inhibition at 10 µM: read-out: Activity inhibition rate c-Kit (h)
Experimental: as §5, §6, §7

[4] = system: human malignant melanoma cell line A875; experiment: In vitro tumor cell proliferation inhibition (MTT): A875; type: cell-based
Excerpt: as §1, §2, §3, §4

[5] = target: VEGFR2 (Homo sapiens, UniProt P35968); experiment: Kinase inhibition activity test, isotope labeling (γ-33P-ATP): VEGFR2; type: biochemical; conditions: for IC50: ATP 90 μM, read-out: VEGFR2 IC50 value (inhibitory activity value); for Activity inhibition rate VEGFR2 (h) / inhibition at 10 µM: test compound at a concentration of 10 μM; for inhibition at 10 µM: read-out: Activity inhibition rate VEGFR2 (h)
Experimental: as §5, §6, §7

c-KIT, sequence (P10721 26-976): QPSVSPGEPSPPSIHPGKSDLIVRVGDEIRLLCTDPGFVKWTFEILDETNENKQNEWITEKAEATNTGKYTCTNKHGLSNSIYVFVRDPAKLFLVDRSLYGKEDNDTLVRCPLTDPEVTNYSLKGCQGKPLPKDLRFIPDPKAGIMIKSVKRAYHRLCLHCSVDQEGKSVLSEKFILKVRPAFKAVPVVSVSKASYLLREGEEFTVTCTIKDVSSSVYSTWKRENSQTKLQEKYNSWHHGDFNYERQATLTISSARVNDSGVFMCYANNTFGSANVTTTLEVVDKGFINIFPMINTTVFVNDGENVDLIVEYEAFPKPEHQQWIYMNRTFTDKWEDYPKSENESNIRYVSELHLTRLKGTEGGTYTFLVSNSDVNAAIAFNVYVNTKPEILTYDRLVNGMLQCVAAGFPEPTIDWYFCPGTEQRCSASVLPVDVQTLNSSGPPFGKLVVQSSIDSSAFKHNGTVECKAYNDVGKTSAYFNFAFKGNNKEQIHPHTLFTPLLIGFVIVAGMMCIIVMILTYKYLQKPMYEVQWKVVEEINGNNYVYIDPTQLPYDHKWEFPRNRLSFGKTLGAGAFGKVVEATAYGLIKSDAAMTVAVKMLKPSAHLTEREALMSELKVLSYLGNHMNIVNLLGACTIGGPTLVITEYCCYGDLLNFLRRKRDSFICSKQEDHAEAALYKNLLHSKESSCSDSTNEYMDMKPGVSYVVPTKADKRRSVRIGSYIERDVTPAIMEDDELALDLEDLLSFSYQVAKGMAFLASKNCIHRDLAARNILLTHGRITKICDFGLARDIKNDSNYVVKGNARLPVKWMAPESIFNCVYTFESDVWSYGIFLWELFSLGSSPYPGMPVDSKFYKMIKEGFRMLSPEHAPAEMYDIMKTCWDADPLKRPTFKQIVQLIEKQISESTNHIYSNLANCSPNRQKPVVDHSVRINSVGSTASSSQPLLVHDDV
PDGFRα, sequence (P16234 24-1089): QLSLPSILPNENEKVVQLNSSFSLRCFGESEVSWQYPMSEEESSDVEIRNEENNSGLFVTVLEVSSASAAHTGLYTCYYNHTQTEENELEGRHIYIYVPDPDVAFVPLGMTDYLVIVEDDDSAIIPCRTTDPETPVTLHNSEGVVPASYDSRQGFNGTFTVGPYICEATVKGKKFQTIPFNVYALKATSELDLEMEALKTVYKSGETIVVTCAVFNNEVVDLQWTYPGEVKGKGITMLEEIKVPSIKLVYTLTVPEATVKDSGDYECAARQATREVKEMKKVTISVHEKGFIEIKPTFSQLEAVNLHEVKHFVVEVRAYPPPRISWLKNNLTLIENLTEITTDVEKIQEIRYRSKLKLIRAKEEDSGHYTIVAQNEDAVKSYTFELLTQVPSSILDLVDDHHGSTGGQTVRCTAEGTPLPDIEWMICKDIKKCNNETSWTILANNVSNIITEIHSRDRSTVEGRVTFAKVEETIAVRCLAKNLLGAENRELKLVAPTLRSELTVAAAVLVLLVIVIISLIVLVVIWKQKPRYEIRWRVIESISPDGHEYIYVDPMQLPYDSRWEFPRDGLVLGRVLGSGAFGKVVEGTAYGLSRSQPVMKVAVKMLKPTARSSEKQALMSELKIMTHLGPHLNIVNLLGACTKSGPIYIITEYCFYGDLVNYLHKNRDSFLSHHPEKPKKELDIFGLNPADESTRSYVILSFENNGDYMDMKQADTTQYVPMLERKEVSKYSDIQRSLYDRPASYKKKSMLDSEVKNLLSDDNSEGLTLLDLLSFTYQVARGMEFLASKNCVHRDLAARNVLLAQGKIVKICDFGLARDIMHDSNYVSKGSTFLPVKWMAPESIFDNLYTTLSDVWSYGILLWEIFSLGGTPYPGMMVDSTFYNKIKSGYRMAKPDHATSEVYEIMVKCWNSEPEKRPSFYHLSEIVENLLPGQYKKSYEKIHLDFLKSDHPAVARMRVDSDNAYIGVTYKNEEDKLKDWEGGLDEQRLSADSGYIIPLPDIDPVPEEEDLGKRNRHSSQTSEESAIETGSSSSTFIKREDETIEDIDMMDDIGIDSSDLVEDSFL
VEGFR2, sequence (P35968 20-1356): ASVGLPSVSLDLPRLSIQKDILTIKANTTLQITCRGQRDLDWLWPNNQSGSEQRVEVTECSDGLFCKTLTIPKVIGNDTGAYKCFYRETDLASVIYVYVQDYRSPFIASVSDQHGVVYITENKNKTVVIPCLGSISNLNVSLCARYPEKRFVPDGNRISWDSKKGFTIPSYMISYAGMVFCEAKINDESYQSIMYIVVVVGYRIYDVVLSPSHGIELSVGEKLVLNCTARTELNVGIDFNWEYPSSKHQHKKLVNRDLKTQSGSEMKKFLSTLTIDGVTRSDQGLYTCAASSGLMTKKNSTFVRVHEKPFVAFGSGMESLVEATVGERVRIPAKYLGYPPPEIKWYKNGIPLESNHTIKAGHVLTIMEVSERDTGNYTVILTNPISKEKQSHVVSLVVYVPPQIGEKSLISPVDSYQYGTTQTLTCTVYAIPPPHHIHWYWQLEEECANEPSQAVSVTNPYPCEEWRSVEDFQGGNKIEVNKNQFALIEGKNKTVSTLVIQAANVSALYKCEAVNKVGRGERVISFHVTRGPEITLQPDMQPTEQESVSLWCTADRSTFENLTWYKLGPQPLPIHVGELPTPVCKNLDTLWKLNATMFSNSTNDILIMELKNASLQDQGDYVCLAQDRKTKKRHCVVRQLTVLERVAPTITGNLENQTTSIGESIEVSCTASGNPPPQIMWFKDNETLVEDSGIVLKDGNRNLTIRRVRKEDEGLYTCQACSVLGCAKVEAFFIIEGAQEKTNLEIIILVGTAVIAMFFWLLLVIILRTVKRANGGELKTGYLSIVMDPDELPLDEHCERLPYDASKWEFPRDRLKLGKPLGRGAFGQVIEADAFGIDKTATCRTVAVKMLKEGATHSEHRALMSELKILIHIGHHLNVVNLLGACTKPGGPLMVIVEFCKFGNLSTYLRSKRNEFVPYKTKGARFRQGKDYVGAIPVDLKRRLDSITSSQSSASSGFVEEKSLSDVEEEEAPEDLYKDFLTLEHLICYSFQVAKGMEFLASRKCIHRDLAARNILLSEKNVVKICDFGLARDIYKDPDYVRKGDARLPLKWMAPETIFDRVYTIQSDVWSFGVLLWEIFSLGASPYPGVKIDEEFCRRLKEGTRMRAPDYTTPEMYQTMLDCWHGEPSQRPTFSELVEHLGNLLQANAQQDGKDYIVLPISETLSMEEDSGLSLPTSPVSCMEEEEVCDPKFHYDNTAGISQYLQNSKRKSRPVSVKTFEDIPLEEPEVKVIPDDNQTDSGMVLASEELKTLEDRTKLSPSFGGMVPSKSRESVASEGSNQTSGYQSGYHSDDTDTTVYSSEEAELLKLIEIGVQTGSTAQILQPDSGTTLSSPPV

IC50 ([1]; 72 hours) [µM] | Activity inhibition rate PDGFRα (h) [2] [%] | Activity inhibition rate c-Kit (h) [3] [%] | IC50 ([4]; 72 hours) [µM] | IC50 [5] [µM] | Activity inhibition rate VEGFR2 (h) [5] [%] | IC50 [2] [µM] | IC50 [3] [µM] | IC50 ([1]; Homo sapiens, K562, 72 hours) [µM] | inhibition at 10 µM [2] [%] | inhibition at 10 µM [3] [%] | IC50 ([4]; Homo sapiens, A875, 72 hours) [µM] | inhibition at 10 µM [5] [%] | Activity inhibition rate VEGFR2 (h) ([5]; 10 µM) [%] | SMILES
< 50 | 63 | 85 | < 50 | 0.037 | 100 |  |  |  |  |  |  |  |  | O=C(Nc1ccc(Oc2ncnc3[nH]ncc23)cc1)Nc1ccc(C(F)(F)F)cc1Cl [4a-13]
< 50 | 48 | 66 | < 50 | 0.028 | 100 |  |  |  |  |  |  |  |  | O=C(Nc1ccccc1)Nc1ccc(Oc2ncnc3[nH]ncc23)cc1 [4a-15, 1-(4-((1H-pyrazolopyrimidine-4-yl)oxy)phenyl)-3-phenylurea]
< 50 | >50 | >90 | 4.27 | 0.014 | 100 |  |  |  |  |  |  |  |  | CC(C)(C)c1cc(NC(=O)Nc2ccc(Oc3ncnc4[nH]ncc34)cc2)n(-c2ccccc2)n1 [4a-24]
3 to 10 | >50 | >90 | 3 to 10 | 0.012 | 100 | 1.4 | 0.911 |  |  |  |  |  |  | CC(C)(C)c1cc(NC(=O)Nc2ccc(Oc3ncnc4[nH]ncc34)cc2)on1 [4a-25]
 |  |  |  |  |  |  |  | 3 to 10 | > 50 | > 90 | < 50 | 100 |  | O=C(Nc1ccc(Oc2ncnc3[nH]ncc23)cc1)Nc1cc(C(F)(F)F)on1 [4a-28]
3 to 10 | >50 | >90 | 3 to 10 | 0.011 | 100 | < 10 | 0.087 |  |  |  |  |  |  | CC(C)(C)c1cc(NC(=O)Nc2ccc(Oc3ncnc4[nH]ncc34)c(F)c2)no1 [4a-31]
 |  |  |  |  |  |  |  | < 50 | > 30 | > 30 | < 50 | 88 |  | C[C@@H](NC(=O)Nc1ccc(Nc2ncnc3[nH]ncc23)cc1)c1ccccc1 [4b-2, (R)-1-(4-(1H-pyrazolopyrimidine-4-amido)phenyl)-3-(1-phenethyl)urea]

Continued, molecule first:

SMILES | IC50 ([1]; 72 hours) [µM] | Activity inhibition rate PDGFRα (h) [2] [%] | Activity inhibition rate c-Kit (h) [3] [%] | IC50 ([4]; 72 hours) [µM] | IC50 [5] [µM] | Activity inhibition rate VEGFR2 (h) [5] [%] | IC50 [2] [µM] | IC50 [3] [µM] | IC50 ([1]; Homo sapiens, K562, 72 hours) [µM] | inhibition at 10 µM [2] [%] | inhibition at 10 µM [3] [%] | IC50 ([4]; Homo sapiens, A875, 72 hours) [µM] | inhibition at 10 µM [5] [%] | Activity inhibition rate VEGFR2 (h) ([5]; 10 µM) [%]
C[C@H](NC(=O)Nc1ccc(Oc2ncnc3[nH]ncc23)cc1)c1ccccc1 [4a-18, (S)-1-(4-((1H-pyrazolopyrimidine-4-yl)oxy)phenyl)-3-(1-phenethyl)urea] | < 50 | 96 | 100 | < 50 |  | 95 |  |  |  |  |  |  |  | 
C[C@@H](NC(=O)Nc1ccc(Oc2ncnc3[nH]ncc23)cc1)c1ccccc1 [4a-19, (R)-1-(4-((1H-pyrazolopyrimidine-4-yl)oxy)phenyl)-3-(1-phenethyl)urea] | < 50 | 84 | 93 | < 50 |  | 92 |  |  |  |  |  |  |  | 
CC(C)(C)c1cc(NC(=O)Nc2ccc(Oc3ncnc4[nH]ncc34)cc2)no1 [4a-26] |  |  |  |  | 0.012 |  |  |  | 3 to 10 | > 50 | > 90 | 3 to 10 | 100 | 
O=C(Nc1cccc(Nc2ncnc3[nH]ncc23)c1)Nc1ccc(F)c(Cl)c1 [4b-1] |  |  |  |  |  |  |  |  | 3.45 | > 30 | > 30 | < 50 | 93 | 
COc1cccc(NC(=O)Nc2ccc(Nc3ncnc4[nH]ncc34)cc2)c1 [4b-3] |  |  |  |  |  |  |  |  | < 50 | > 30 | > 30 | < 50 | 96 | 
C[C@H](NC(=O)Nc1ccc(Nc2ncnc3[nH]ncc23)cc1)c1ccccc1 [4b-4] | < 50 | >30 | >30 | < 50 |  |  |  |  |  |  |  |  |  | 94
